What was measured:
Plasminogen [1] = target: T1, Plasminogen (Homo sapiens, UniProt P00747); experiment: (§1) Inhibitory activity against human plasmin was evaluated using chromozym-PL as substrate at 1 mM
[2] = target: T2, Tissue-type plasminogen activator (Homo sapiens, UniProt P00750); experiment: Inhibitory activity against human tissue plasminogen activator was evaluated using S-2444 as substrate and tissue plasminogen activator stimulator at 1 mM
Target sequence in this assay (P00750 36-562 limits assumed): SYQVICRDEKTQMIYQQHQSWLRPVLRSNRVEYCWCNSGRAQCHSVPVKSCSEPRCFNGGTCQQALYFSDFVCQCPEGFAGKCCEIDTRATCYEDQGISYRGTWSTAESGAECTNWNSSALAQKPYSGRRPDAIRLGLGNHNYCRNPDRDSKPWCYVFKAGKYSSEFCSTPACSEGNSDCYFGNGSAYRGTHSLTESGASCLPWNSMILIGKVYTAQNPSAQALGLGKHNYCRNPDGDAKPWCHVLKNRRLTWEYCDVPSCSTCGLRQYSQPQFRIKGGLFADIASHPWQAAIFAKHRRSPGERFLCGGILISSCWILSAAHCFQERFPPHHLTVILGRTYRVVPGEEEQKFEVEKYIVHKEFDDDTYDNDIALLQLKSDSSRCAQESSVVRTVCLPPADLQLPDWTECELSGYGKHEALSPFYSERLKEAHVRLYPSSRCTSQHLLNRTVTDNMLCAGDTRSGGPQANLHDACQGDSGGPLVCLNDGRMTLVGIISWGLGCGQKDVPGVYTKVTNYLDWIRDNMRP

Plasminogen [3] = target: T1, Plasminogen; experiment: Inhibitory activity of 3 uM compound against plasmin was evaluated using chromozym-PL as substrate
[4] = target: T2, Tissue-type plasminogen activator; experiment: Inhibitory activity against human tissue type plasminogen activator was evaluated using S-2444 as substrate and tissue plasminogen activator stimulator at […]
Target sequence in this assay (P00750 36-562 limits assumed): as above

[5] = target: Urokinase-type plasminogen activator (Homo sapiens, UniProt P00749)
Plasminogen [6] = target: T1, Plasminogen; experiment: Inhibition of human plasmin activity with chromozym-PL as substrate
Plasminogen [7] = target: T1, Plasminogen; experiment: Inhibitory activity against human plasmin was evaluated using chromozym-PL as substrate at 300 mM
[8] = target: T2, Tissue-type plasminogen activator; experiment: Inhibitory activity against human tissue type plasminogen activator using S-2444
Target sequence in this assay (P00750 whole entry): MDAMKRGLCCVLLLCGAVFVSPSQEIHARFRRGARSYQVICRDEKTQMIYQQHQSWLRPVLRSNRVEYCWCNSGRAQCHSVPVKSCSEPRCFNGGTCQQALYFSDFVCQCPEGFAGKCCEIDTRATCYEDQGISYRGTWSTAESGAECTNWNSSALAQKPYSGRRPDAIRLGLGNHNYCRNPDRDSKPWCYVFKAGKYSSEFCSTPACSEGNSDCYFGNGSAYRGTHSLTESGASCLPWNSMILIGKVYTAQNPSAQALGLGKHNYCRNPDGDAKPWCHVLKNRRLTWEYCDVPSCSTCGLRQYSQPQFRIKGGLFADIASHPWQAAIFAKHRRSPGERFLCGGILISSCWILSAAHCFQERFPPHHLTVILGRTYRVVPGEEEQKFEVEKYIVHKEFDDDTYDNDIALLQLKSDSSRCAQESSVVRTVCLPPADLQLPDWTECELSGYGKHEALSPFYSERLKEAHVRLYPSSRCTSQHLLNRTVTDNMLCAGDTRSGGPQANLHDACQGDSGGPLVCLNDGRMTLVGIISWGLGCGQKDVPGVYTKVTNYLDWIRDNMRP

Plasminogen [9] = target: T1, Plasminogen; experiment: Inhibitory activity against human plasmin was evaluated using chromozym-PL as substrate at 100 mM
Plasminogen [10] = target: T1, Plasminogen; experiment: Inhibitory activity against human plasmin was evaluated using chromozym-PL as substrate at 10 uM
Plasminogen [11] = target: T1, Plasminogen; experiment: Inhibitory activity of 30 uM compound against plasmin was evaluated using chromozym-PL as substrate
[12] = target: T2, Tissue-type plasminogen activator; experiment: Inhibitory activity against human tissue plasminogen activator was evaluated using S-2444 as substrate and tissue plasminogen activator stimulator at 30 uM
Target sequence in this assay (P00750 36-562 limits assumed): as the sequence (P00750 36-562 limits assumed) above

Plasminogen [13] = target: T1, Plasminogen; experiment: as §1; remark: listed apart in the source

T1 sequence (P00747 97-580 limits assumed): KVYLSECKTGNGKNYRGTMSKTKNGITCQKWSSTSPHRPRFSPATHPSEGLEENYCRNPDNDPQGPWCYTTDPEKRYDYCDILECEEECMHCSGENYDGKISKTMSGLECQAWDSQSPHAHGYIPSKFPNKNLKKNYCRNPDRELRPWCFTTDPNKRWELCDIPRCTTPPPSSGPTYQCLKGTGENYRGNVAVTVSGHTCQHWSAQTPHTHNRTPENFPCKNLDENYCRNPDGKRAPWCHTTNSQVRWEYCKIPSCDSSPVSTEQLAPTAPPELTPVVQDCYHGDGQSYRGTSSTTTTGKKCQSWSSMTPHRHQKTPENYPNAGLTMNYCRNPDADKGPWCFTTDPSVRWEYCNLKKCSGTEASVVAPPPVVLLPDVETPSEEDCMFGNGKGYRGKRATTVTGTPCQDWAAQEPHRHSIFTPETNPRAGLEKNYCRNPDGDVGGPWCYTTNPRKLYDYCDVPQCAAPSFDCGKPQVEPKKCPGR
T1 sequence (P00747 581-810 limits assumed): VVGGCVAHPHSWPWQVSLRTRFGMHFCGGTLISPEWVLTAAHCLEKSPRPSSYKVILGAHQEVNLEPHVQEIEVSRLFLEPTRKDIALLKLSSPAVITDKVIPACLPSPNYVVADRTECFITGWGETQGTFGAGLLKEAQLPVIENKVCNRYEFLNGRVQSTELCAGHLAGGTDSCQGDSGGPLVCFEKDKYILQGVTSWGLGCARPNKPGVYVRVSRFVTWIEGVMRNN

SMILES	inhibition [4] [%]	Ki [5] [nM]	Ki (Plasminogen [6]) [µM]	Ki [8] [µM]	other results
N=C(N)Nc1cc2ccccc2cn1	–	–	–	–	inhibition (Plasminogen [1]): < 50%; inhibition [2]: < 50%
N=C(N)Nc1ncc(Cl)c2ccc(-c3ccc(C(=O)O)cc3)cc12	< 50	82	–	–	inhibition (Plasminogen [3]): 65%
N=C(N)Nc1ncc(Cl)c2ccc(-c3ccc4c(c3)OCO4)cc12	< 50	100	3.2	–	–
N=C(N)Nc1ncc(Cl)c2ccccc12	–	–	–	–	inhibition (Plasminogen [1]): < 50%
N=C(N)Nc1nccc2ccc(CO)cc12	< 50	1300	–	–	inhibition (Plasminogen [9]): 55%
N=C(N)Nc1nccc2ccc(-c3ccc4c(c3)OCO4)cc12	–	–	12	–	inhibition [2]: 55%
COc1ccc(-c2ccc3c(Cl)cnc(N=C(N)N)c3c2)cc1	< 50	–	3	–	–
N=C(N)Nc1ncc(Cl)c2ccc(-c3cccc(C(=O)O)c3)cc12	< 50	–	–	–	inhibition (Plasminogen [10]): < 50%
N#Cc1ccc(-c2ccc3c(Cl)cnc(NC(=N)N)c3c2)cc1	< 50	–	–	–	inhibition (Plasminogen [10]): 82%
N=C(N)Nc1nccc2ccc(OCc3ccccc3)cc12	–	4800	–	13	inhibition (Plasminogen [9]): < 50%
N#Cc1cccc(-c2ccc3c(Cl)cnc(NC(=N)N)c3c2)c1	< 50	–	–	–	–
N=C(N)Nc1ncc(Br)c2ccccc12	–	–	–	159	inhibition (Plasminogen [1]): < 50%
COc1ccc(C#N)cc1-c1ccc2c(Cl)cnc(N=C(N)N)c2c1	< 50	180	–	–	inhibition (Plasminogen [11]): < 50%
N=C(N)Nc1nccc2c(OCc3ccccc3)cccc12	–	–	–	–	inhibition (Plasminogen [9]): < 50%
COc1ccc(C(=O)O)cc1-c1ccc2c(Cl)cnc(N=C(N)N)c2c1	< 50	9	4.75	–	–
N=C(N)Nc1nccc2cc(Br)ccc12	–	–	–	–	inhibition [2]: < 50%
N#Cc1ccc(-c2ccc3c(Cl)cnc(N=C(N)N)c3c2)cc1	–	490	–	–	–
Cc1ccc(-c2ccc3c(Cl)cnc(N=C(N)N)c3c2)cc1	–	130	7.3	19	–
N=C(N)Nc1ccccn1	–	29000	–	–	–
N=C(N)Nc1ncc(Cl)c2ccc(-c3ccccc3)cc12	–	–	–	–	inhibition (Plasminogen [11]): < 50%; inhibition [12]: < 50%
N#Cc1cccc(-c2ccc3c(Cl)cnc(N=C(N)N)c3c2)c1	–	300	4.1	–	–
N=C(N)Nc1ccc2ccccc2n1	–	–	–	–	inhibition (Plasminogen [1]): < 50%
N=C(N)Nc1nccc2ccc(C(=O)O)cc12	< 50	–	–	–	inhibition (Plasminogen [9]): < 50%
COc1cccc(-c2ccc3c(Cl)cnc(N=C(N)N)c3c2)c1	< 50	83	–	–	–
NC(N)=Nc1ncc(Cl)c2ccc(-c3cccc(C(=O)O)c3)cc12	–	37	–	–	–
N=C(N)Nc1nccc2c(Br)cccc12	–	4930	238	140	–

Continued, in another order:

inhibition [4] [%]	Ki [5] [nM]	Ki (Plasminogen [6]) [µM]	Ki [8] [µM]	SMILES	other results
–	3620	–	–	COc1cccc2c(N=C(N)N)nccc12	inhibition [2]: < 50%; inhibition (Plasminogen [7]): < 50%
–	–	50.8	95.1	NC(N)=Nc1nccc2ccc(Br)cc12	–
< 50	660	–	–	COc1ccc2ccnc(N=C(N)N)c2c1	inhibition (Plasminogen [9]): < 50%
–	–	–	13	NC(N)=Nc1nccc2c(OCc3ccccc3)cccc12	–
–	209000	–	367	NC(N)=Nc1ccc2ccccc2n1	–
–	–	131	–	NC(N)=Nc1nccc2cc(Br)ccc12	–
< 50	–	–	–	Cc1cnc(N=C(N)N)c2ccccc12	inhibition (Plasminogen [9]): < 50%
–	400	47.5	124	NC(N)=Nc1nccc2ccc(-c3ccccc3)cc12	–
–	830	–	128	NC(N)=Nc1ncc(Cl)c2ccccc12	–
–	–	14.5	15.5	COc1ccccc1-c1ccc2c(Cl)cnc(N=C(N)N)c2c1	–
< 50	640	24	–	CC(O)c1ccc2ccnc(N=C(N)N)c2c1 (configuration not stated)	–
–	1920	–	126	NC(N)=Nc1nccc2ccccc12	Ki (Plasminogen [13]): 68 µM
–	> 100000	47.5	124	NC(N)=Nc1nccc2c(-c3ccccc3)cccc12	–
